Test results from US20230227453A1 (priority 2020, published 2023).

Key:
5-HT2A [1] = biological target: T1, 5-HT2A (Homo sapiens, UniProt P28223); experiment: Serotonin 5-HT2A in vitro radioligand binding competition assay; design: purchased Epics Therapeutics S.A. (Belgium) FAST-0505B; host or cells: membrane extracts; conditions: radiotracer [3H]-DOI, membrane extracts
Protocol: Serotonin 5-HT2A In Vitro Radioligand Binding Competition Assay. The 5-HT2A radioligand binding competition assay was performed at Epics Therapeutics S.A. (Belgium, FAST-0505B) using conventional methods. Briefly, competition binding is performed in duplicate in the wells of a 96 well plate (Master Block, Greiner, 786201) containing binding buffer (optimized for each receptor), membrane extracts (amount of protein/well optimized for each receptor), radiotracer [^3H]-DOI (final concentration optimized for each receptor) and test compound. Nonspecific binding is determined by co-incubation with 200-fold excess of cold competitor. The samples are incubated in a final volume of 0.1 ml at a temperature and for a duration optimized for each receptor and then filtered over filter plates. Filters are washed six times with 0.5 ml of ice-cold washing buffer (optimized for each receptor) and 50 μl of Microscint 20 (Packard) are added in each well. The plates are incubated 15 min on an orbital shaker and then counted with a TopCount™ for 1 min/well.

5-HT2A [2] = biological target: T1, 5-HT2A; experiment: Serotonin 5-HT2A in vitro cellular IPOne agonism assay; type: cell-based; design: host or cells: CHO-K1; conditions: CHO-K1 cells, IPOne HTRF, 60 min
Protocol: Serotonin 5-HT2A In Vitro Cellular IPOne Agonism Assay. The 5-HT2A IPOne HTRF assay was performed at Epics Therapeutics S.A. (Belgium, FAST-0505I) using conventional methods. Briefly, CHO-K1 cells expressing human recombinant 5-HT2A receptor grown to mid-log phase in culture media without antibiotics were detached with PBS-EDTA, centrifuged, and resuspended in medium without antibiotics buffer. 20,000 cells are distributed in a 96 well plate and incubated overnight at 37° C. with 5% CO2.
For agonist testing, the medium is removed and 20 μl of assay buffer plus 20 μl of test compound or reference agonist are added in each well. The plate is incubated for 60 min. at 37° C. with 5% CO2.
After addition of the lysis buffer containing IP1-d2 and anti-IP1 cryptate detection reagents, plates are incubated 1-hour at room temperature, and fluorescence ratios are measured according to the manufacturer specification, with the HTRF kit.

rat cortical neurons = experiment: Neurite Outgrowth Assay (Procedure B); type: cell-based; design: key: A: Statistically significant mean increase as a percent of DMSO control at 10 μM or less; B: No statistically significant mean increase as a percent of DMSO control at 10 μM or less; conditions: primary rat neuronal cultures, 72h, vs DMSO control, 10 μM or less
Protocol: Neurite Outgrowth Assay (Procedure B). Pregnant Wistar rats (Janvier; France) were used for the study. They were delivered 6 days before their use. Upon arrival at Neurofit animal facility, they were housed one per cage and maintained in a room with controlled temperature (21-22° C.) and a reversed light-dark cycle (12h/12h; lights on: 17:30-05:30; lights off: 05:30-17:30) with food and water available ad libitum.
Female Wistar rats of 17 days gestation were killed by cervical dislocation and the fetuses were removed from the uterus. Their brains were placed in ice-cold medium of Leibovitz (L15, Gibco, Fisher bioblock, France). Cortices were dissected and meninges were carefully removed. The cortical neurons were dissociated by trypsinization for 30 min at 37° C. (trypsin-EDTA, Gibco) in presence of 0.1 mg/ml DNAse I (Roche, France). The reaction was stopped by addition of Dulbecco's Modified Eagle Medium (DMEM; Gibco) with 10% of fetal bovine serum (FBS; Gibco). The suspension was triturated with a 10-ml pipette and using a needle syringe 21G and centrifuged at 350×g for 10 min at room temperature. The pellet of dissociated cells was resuspended in a medium consisting of Neurobasal (Gibco) supplemented with 2% B27 supplement (Gibco), 0.5 mM L-Glutamine (Gibco), an antibiotic-antimicotic mixture. Viable cells were counted in a Neubauer cytometer using the trypan blue exclusion test (Sigma). Cells were seeded at a density of 10000 cells per well in 96-well plate (Costar) precoated with poly-L-lysine. Test compound at different concentrations were added to the cultures. Donepezil (positive control) was tested at 250 nM.
After 72h (3 days) of plating, cultures were fixed with paraformaldehyde in PBS (4%, Sigma) for 30 min at 4° C. Then, cells were successively permeabilized with 0.1% Triton X100 for 30 min, saturated with PBS containing 3% of BSA and were incubated 1 h with anti-beta III tubulin antibody (Sigma) at 1/10 000 in PBS containing 0.5% of BSA. Cells were washed three times with PBS containing 0.5% of BSA, and they were incubated 1 h with goat anti-mouse antibody coupled with AF488 (Invitrogen A11001) diluted at 1/1000 in PBS containing 0.5% of BSA. Finally, nuclei were staining with DAPI 1 mg/ml at 1/1000 in PBS containing 0.5% of BSA. After rinsing with PBS, the plate was filmed and neurite networks were examined and analyzed using High-Content Screening (Celllnsight, Thermo Scientific). The average number of neurites per neuron and the average total length of neurites per neuron were the main parameters analyzed. Analysis of data was performed using analysis of variance (ANOVA). The Fisher's Protected Least Significant Difference test was used for multiple comparisons. A p value≤0.05 was considered significant. The software used is StatView 5.0 from SAS Institut.

T1 sequence (P28223 whole entry): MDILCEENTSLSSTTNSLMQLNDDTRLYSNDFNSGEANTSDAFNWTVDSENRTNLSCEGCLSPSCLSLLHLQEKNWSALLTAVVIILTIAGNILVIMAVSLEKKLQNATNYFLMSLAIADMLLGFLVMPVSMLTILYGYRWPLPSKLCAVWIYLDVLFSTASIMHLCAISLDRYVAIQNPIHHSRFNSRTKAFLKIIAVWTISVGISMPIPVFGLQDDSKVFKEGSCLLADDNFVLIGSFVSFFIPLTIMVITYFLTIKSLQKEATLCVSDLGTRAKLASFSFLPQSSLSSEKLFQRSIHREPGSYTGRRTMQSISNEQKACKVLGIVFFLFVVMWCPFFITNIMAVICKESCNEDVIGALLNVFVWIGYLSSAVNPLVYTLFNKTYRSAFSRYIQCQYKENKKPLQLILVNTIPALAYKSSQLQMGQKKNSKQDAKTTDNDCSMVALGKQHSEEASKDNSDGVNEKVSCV

| SMILES | IC50 (5-HT2A [1]) [µM] | EC50 (5-HT2A [2]) [µM] | Increase in Neurite Length (rat cortical neurons) | Increase in Neurite Number (rat cortical neurons) |
| --- | --- | --- | --- | --- |
| CN1CCc2c(n(C)c3ncccc23)CC1 [Example 21, 7,10-dimethyl-5,6,7,8,9,10-hexahydropyrido[3′,2′:4,5]pyrrolo[2,3-d]azepine] | 0.101 to 1 | 0.101 to 1 | – | – |
| Cc1ccc2c3c([nH]c2n1)CCN(C)CC3 [Example 7, 2,7-dimethyl-5,6,7,8,9,10-hexahydropyrido[3′,2′:4,5]pyrrolo[2,3-d]azepine] | 1 to 10 | 1 to 10 | B | B |
| Clc1cnc2[nH]c3c(c2c1)CCN(C1COC1)CC3 [Example 27, 3-chloro-7-(oxetan-3-yl)-5,6,7,8,9,10-hexahydropyrido[3′,2′:4,5]pyrrolo[2,3-d]azepine] | 1 to 10 | 1 to 10 | – | – |
| Cc1ccc2c3c(n(C)c2n1)CCN(C1COC1)CC3 [Example 11, 2,10-dimethyl-7-(oxetan-3-yl)-5,6,7,8,9,10-hexahydropyrido[3′,2′:4,5]pyrrolo[2,3-d]azepine] | > 10 | > 10 | B | B |
| Clc1cnc2[nH]c3c(c2c1)CCNCC3 [Example 13, 3-chloro-5,6,7,8,9,10-hexahydropyrido[3′,2′:4,5]pyrrolo[2,3-d] azepine] | 0.101 to 1 | 0.01 to 0.1 | – | – |
| COc1ccc2c3c([nH]c2n1)CCN(C1COC1)CC3 [Example 4, 2-methoxy-7-(oxetan-3-yl)-5,6,7,8,9,10 hexahydropyrido[3′,2′:4,5]pyrrolo[2,3-d]azepine] | > 10 | > 10 | B | B |
| Cc1ccc2c3c([nH]c2n1)CCNCC3 [Example 8, 2-methyl-5,6,7,8,9,10-hexahydropyrido[3′,2′:4,5]pyrrolo[2,3-d]azepine] | 1 to 10 | 0.101 to 1 | B | B |
| Brc1ccc2c3c([nH]c2n1)CCN(C1COC1)CC3 [Example 24, 2-bromo-7-(oxetan-3-yl)-5,6,7,8,9,10-hexahydropyrido[3′,2′:4,5]pyrrolo[2,3-d]azepine] | 1 to 10 | 1 to 10 | – | – |
| CN1CCc2[nH]c3ncc(Cl)cc3c2CC1 [Example 26, 3-chloro-7-methyl-5,6,7,8,9,10-hexahydropyrido[3′,2′:4,5]pyrrolo[2,3-d]azepine] | 0.101 to 1 | 0.101 to 1 | – | – |
| Cn1c2c(c3cc(Cl)cnc31)CCN(C1COC1)CC2 [Example 29, 3-chloro-10-methyl-7-(oxetan-3-yl)-5,6,7,8,9,10-hexahydropyrido[3′,2′:4,5]pyrrolo[2,3-d]azepine] | > 10 | 1 to 10 | – | – |
| COc1ccc2c3c(n(C)c2n1)CCN(C1COC1)CC3 [Example 6, 2-methoxy-10-methyl-7-(oxetan-3-yl)-5,6,7,8,9,10-hexahydropyrido[3′,2′:4,5]pyrrolo[2,3-d]azepine] | > 10 | 1 to 10 | – | – |
| COc1ccc2c3c([nH]c2n1)CCNCC3 [Example 2, 2-methoxy-5,6,7,8,9,10-hexahydropyrido[3′,2′:4,5]pyrrolo[2,3-d]azepine] | 0.101 to 1 | 0.01 to 0.1 | A | A |
| COc1cc2c3c([nH]c2cn1)CCN(C)CC3 [Example 14, 3-methoxy-7-methyl-5,6,7,8,9,10-hexahydropyrido[4′,3′:4,5]pyrrolo[2,3-d]azepine] | > 10 | > 10 | – | – |
| CN1CCc2c(n(C)c3ncc(Cl)cc23)CC1 [Example 30, 3-chloro-7,10-dimethyl-5,6,7,8,9,10-hexahydropyrido[3′,2′:4,5]pyrrolo[2,3-d]azepine] | 0.101 to 1 | 0.101 to 1 | – | – |
| CN1CCc2[nH]c3ncccc3c2CC1 [Example 20, 7-methyl-5,6,7,8,9,10-hexahydropyrido[3′,2′:4,5]pyrrolo[2,3-d]azepine] | 0.101 to 1 | 0.101 to 1 | – | – |
| COc1ccc2[nH]c3c(c2n1)CCN(C)CC3 [Example 15, 2-methoxy-8-methyl-5,6,7,8,9,10-hexahydropyrido[2′,3′:4,5]pyrrolo[2,3-d]azepine] | 0.101 to 1 | 0.101 to 1 | – | – |
| Cn1c2c(c3ccc(Br)nc31)CCNCC2 [Example 25, 2-bromo-10-methyl-5,6,7,8,9,10-hexahydropyrido[3′,2′:4,5]pyrrolo[2,3-d]azepine] | 0.101 to 1 | 0.01 to 0.1 | – | – |
| Cc1ccc2c3c(n(C)c2n1)CCNCC3 [Example 10, 2,10-dimethyl-5,6,7,8,9,10-hexahydropyrido[3′,2′:4,5]pyrrolo[2,3-d]azepine] | 1 to 10 | 0.01 to 0.1 | – | – |
| Cn1c2c(c3cc(Cl)cnc31)CCNCC2 [Example 28, 3-chloro-10-methyl-5,6,7,8,9,10-hexahydropyrido[3′,2′:4,5]pyrrolo[2,3-d]azepine] | 0.101 to 1 | 0.101 to 1 | – | – |
| CN1CCc2[nH]c3nc(Br)ccc3c2CC1 [Example 19, 2-bromo-7-methyl-5,6,7,8,9,10-hexahydropyrido[3′,2′:4,5]pyrrolo[2,3-d]azepine] | 1 to 10 | 0.101 to 1 | – | – |
| Cn1c2c(c3cccnc31)CCNCC2 [Example 18, 10-methyl-5,6,7,8,9,10-hexahydropyrido[3′,2′:4,5]pyrrolo[2,3-d]azepine] | 0.101 to 1 | 0.101 to 1 | – | – |
| Cc1ccc2c3c([nH]c2n1)CCN(C1COC1)CC3 [Example 9, 2-methyl-7-(oxetan-3-yl)-5,6,7,8,9,10-hexahydropyrido[3′,2′:4,5]pyrrolo[2,3-d]azepine] | > 10 | > 10 | B | B |
| Brc1ccc2c3c([nH]c2n1)CCNCC3 [Example 16, 2-bromo-5,6,7,8,9,10-hexahydropyrido[3′,2′:4,5]pyrrolo[2,3-d]azepine] | 0.101 to 1 | 0.01 to 0.1 | – | – |
| c1cnc2[nH]c3c(c2c1)CCNCC3 [Example 17, 5,6,7,8,9,10-hexahydropyrido[3′,2′:4,5] pyrrolo[2,3-d] azepine] | 0.101 to 1 | 0.101 to 1 | – | – |
| c1cnc2[nH]c3c(c2c1)CCN(C1COC1)CC3 [Example 22, 7-(oxetan-3-yl)-5,6,7,8,9,10-hexahydropyrido[3′,2′:4,5]pyrrolo[2,3-d]azepine] | > 10 | > 10 | – | – |
| Cn1c2c(c3cccnc31)CCN(C1COC1)CC2 [Example 23, 10-methyl-7-(oxetan-3-yl)-5,6,7,8,9,10-hexahydropyrido[3′,2′:4,5]pyrrolo[2,3-d]azepine] | > 10 | 1 to 10 | – | – |
